Test results published in ChEMBL document CHEMBL4765295, “Synthesis, pharmacological profile and 2D-QSAR studies of curcumin-amino acid conjugates as potential drug candidates” (Eur J Med Chem, 2020).
Where “and” joins values, the source holds several entries; their conditions need not be identical. Equal entries are not always repeated.

Tests used:
[1] = Ulcerogenic activity in fasted albino mouse assessed as incidence of gastric ulceration at 10 mg/kg, po for 3 days (reference value: 0 %); type: toxicity, organism-based; details: in vivo, 72 h, time 3 day
Rattus norvegicus [2] = experiment: Antiinflammatory activity in Wistar rat model of carrageenan-induced paw edema assessed as reduction in thickness of paw edema at 10 mg/kg, ip pretreated for 1 hr followed by carrageenan challenge and measured after 1 hr (reference value: 2.41 +/-0.05 mm); type: functional; details: time 1 hr after carrageenan
Mus musculus [3] = experiment: Analgesic activity in albino mouse assessed as forepaw licking/jumping latency time at 10 mg/kg, ip measured after 30 mins by hot plate test (reference value: 5.02 +/- 0.09 sec); type: functional; details: 0.5 h
Rattus norvegicus [4] = experiment: Anti-inflammatory activity in Wistar rat assessed as inhibition of carrageenan-induced paw edema at 10 mg/kg, ip pretreated for 1 hr followed by carrageenan challenge and measured after 4 hr relative to indomethacin; type: functional; details: time 5 hrs
Rattus norvegicus [5] = experiment: Antiinflammatory activity in Wistar rat model of carrageenan-induced paw edema assessed as reduction in thickness of paw edema at 10 mg/kg, ip pretreated for 1 hr followed by carrageenan challenge and measured after 2 hrs (reference value: 2.06 +/-0.09 mm); type: functional; details: time 3 hrs
Candida albicans = experiment: Antifungal activity against Candida albicans incubated for 18 to 24 hrs by CLSI method; type: functional; details: time 18-24 hrs
Mus musculus [6] = experiment: Analgesic activity in albino mouse assessed as protection at 10 mg/kg, ip measured after 60 mins by hot plate test (reference value: 0 %); type: functional; details: 1 h
[7] = Ulcerogenic activity in fasted albino mouse assessed as ulcer index in gastric mucosa at 10 mg/kg, po for 3 days (reference value: 0); type: toxicity, organism-based; details: in vivo, 72 h, time 3 day
[8] = Ulcerogenic activity in fasted albino mouse assessed as average number of ulcers in gastric mucosa at 10 mg/kg, po for 3 days (reference value: 0); type: toxicity, organism-based; details: in vivo, 72 h, time 3 day
[9] = Ulcerogenic activity in fasted albino mouse assessed as average severity of ulcers in gastric mucosa at 10 mg/kg, po for 3 days (reference value: 0); type: toxicity, organism-based; details: in vivo, 72 h, time 3 day
Splenocyte [10] = experiment: Immunomodulatory activity in Swiss albino mouse splenocytes assessed as cell viability at 10 uM by measuring stimulation index incubated for 72 hrs in presence of mitogenic stimulus phytohaemagglutinin by MTT assay (reference value: 1.00 +/- 0.24); type: functional
Mus musculus [11] = experiment: Analgesic activity in albino mouse assessed as protection at 10 mg/kg, ip measured after 30 mins by hot plate test (reference value: 0 %); type: functional; details: 0.5 h
Splenocyte [12] = experiment: Immunomodulatory activity in Swiss albino mouse splenocytes assessed as cell viability at 10 uM by measuring inhibition of stimulation index incubated for 72 hrs in presence of mitogenic stimulus phytohaemagglutinin by MTT assay relative to indomethacin; type: functional; details: read-out: Activity
Rattus norvegicus [13] = experiment: Antiinflammatory activity in Wistar rat model of carrageenan-induced paw edema assessed as reduction in thickness of paw edema at 10 mg/kg, ip pretreated for 1 hr followed by carrageenan challenge and measured after 3 hrs (reference value: 1.79 +/-0.07 mm); type: functional; details: time 4 hrs
Peritoneal macrophage [14] = experiment: Antiinflammatory activity in […] mouse Peritoneal macrophages assessed as reduction in LPS-induced NO production by measuring reduction in stimulation index at 10 uM preincubated for 1 hr followed by LPS stimulation measured after 24 hrs by Griess method (reference value: 27.31 +/- 2.56 uM); type: functional; details: time 25 hrs
Mus musculus [15] = experiment: Analgesic activity in albino mouse assessed as protection at 10 mg/kg, ip measured after 120 mins by hot plate test relative to indomethacin; type: functional; details: 2 h
Mus musculus [16] = experiment: Analgesic activity in albino mouse assessed as protection at 10 mg/kg, ip measured after 90 mins by hot plate test (reference value: 0 %); type: functional; details: 1.5 h
Staphylococcus aureus = experiment: Antibacterial activity against Staphylococcus aureus ATCC 25923 incubated for 18 hrs by agar dilution method; type: functional
Rattus norvegicus [17] = experiment: Anti-inflammatory activity in Wistar rat assessed as inhibition of carrageenan-induced paw edema at 10 mg/kg, ip pretreated for 1 hr followed by carrageenan challenge and measured after 4 hr relative to control (reference value: 0.00 +/-0.4 %); type: functional; details: time 5 hrs
Rattus norvegicus [18] = experiment: Antiinflammatory activity in Wistar rat model of carrageenan-induced paw edema assessed as reduction in thickness of paw edema at 10 mg/kg, ip pretreated for 1 hr followed by carrageenan challenge and measured after 24 hrs (reference value: 0.83 +/-0.08 mm); type: functional; details: time 25 hrs
Rattus norvegicus [19] = experiment: Anti-inflammatory activity in Wistar rat assessed as inhibition of carrageenan-induced paw edema at 10 mg/kg, ip pretreated for 1 hr followed by carrageenan challenge and measured after 3 hr relative to control (reference value: 0.00 +/-0.1 %); type: functional; details: time 4 hrs
Rattus norvegicus [20] = experiment: Anti-inflammatory activity in Wistar rat assessed as inhibition of carrageenan-induced paw edema at 10 mg/kg, ip pretreated for 1 hr followed by carrageenan challenge and measured after 24 hr relative to control (reference value: 0.00 +/-0.3 %); type: functional; details: time 25 hrs
Mus musculus [21] = experiment: Analgesic activity in albino mouse assessed as forepaw licking/jumping latency time at 10 mg/kg, ip measured after 120 mins by hot plate test (reference value: 2.62 +/- 0.06 sec); type: functional; details: 2 h
Mus musculus [22] = experiment: Analgesic activity in albino mouse assessed as forepaw licking/jumping latency time at 10 mg/kg, ip measured after 90 mins by hot plate test (reference value: 2.72 +/- 0.01 sec); type: functional; details: 1.5 h
Rattus norvegicus [23] = experiment: Antiinflammatory activity in Wistar rat model of carrageenan-induced paw edema assessed as reduction in thickness of paw edema at 10 mg/kg, ip pretreated for 1 hr followed by carrageenan challenge and measured after 4 hrs (reference value: 1.40 +/-0.10 mm); type: functional; details: time 5 hrs
Pseudomonas aeruginosa = experiment: Antibacterial activity against Pseudomonas aeruginosa ATCC 27853 incubated for 18 hrs by agar dilution assay; type: functional
Mus musculus [24] = experiment: Analgesic activity in albino mouse assessed reduction in acetic acid-induced abdominal writhing by measuring writing reflex at 10 mg/kg, ip pretreated for 1 hr followed by acetic acid challenge and measured starting 5 mins post acetic acid challenge for 10 mins (reference value: 42.4 +/- 1.02); type: functional; details: time 75 min, 1.25 h
Mus musculus [25] = experiment: Analgesic activity in albino mouse assessed as protection at 10 mg/kg, ip measured after 120 mins by hot plate test (reference value: 0 %); type: functional; details: 2 h
[26] = Toxicity in albino mouse assessed as induction of toxic symptoms at 50 to 100 mg/kg, ip measured after 24 hrs; type: organism-based; details: in vivo, dose 50-100 mg/kg
Salmonella typhimurium = experiment: Antibacterial activity against Salmonella typhimurium ATCC 19430 incubated for 18 hrs by agar dilution assay; type: functional, Salmonella enterica subsp. enterica serovar Typhimurium; details: Salmonella enterica
Rattus norvegicus [27] = experiment: Anti-inflammatory activity in Wistar rat assessed as inhibition of carrageenan-induced paw edema at 10 mg/kg, ip pretreated for 1 hr followed by carrageenan challenge and measured after 1 hr relative to control (reference value: 0.00 +/-0.02 %); type: functional; details: time 2 hrs
Mus musculus [28] = experiment: Analgesic activity in albino mouse assessed as forepaw licking/jumping latency time at 10 mg/kg, ip measured after 60 mins by hot plate test (reference value: 3.42 +/- 0.03 sec); type: functional; details: 1 h
Peritoneal macrophage [29] = experiment: Antiinflammatory activity in […] mouse Peritoneal macrophages assessed as inhibition of LPS-induced NO production at 10 uM preincubated for 1 hr followed by LPS stimulation measured after 24 hrs by Griess method relative to control (reference value: 0.0 %); type: functional; design: scale not given: the % may be the effect or the level left; details: time 25 hrs
Streptococcus pyogenes = experiment: Antibacterial activity against Streptococcus pyogenes ATCC 19615 incubated for 18 hrs by agar dilution method; type: functional
Rattus norvegicus [30] = experiment: Anti-inflammatory activity in Wistar rat assessed as inhibition of carrageenan-induced paw edema at 10 mg/kg, ip pretreated for 1 hr followed by carrageenan challenge and measured after 2 hr relative to control (reference value: 0.00 +/-0.03 %); type: functional; details: time 3 hrs
Mus musculus [31] = experiment: Analgesic activity in albino mouse assessed protection against acetic acid-induced abdominal writhing at 10 mg/kg, ip pretreated for 1 hr followed by acetic acid challenge and measured starting 5 mins post acetic acid challenge for 10 mins relative to control (reference value: 0 %); type: functional; details: time 75 min, 1.25 h
Mus musculus [32] = experiment: Analgesic activity in albino mouse assessed protection against acetic acid-induced abdominal writhing at 10 mg/kg, ip pretreated for 1 hr followed by acetic acid challenge and measured starting 5 mins post acetic acid challenge for 10 mins relative to indomethacin; type: functional; details: time 75 min, 1.25 h

| Structure (SMILES) | Activity [1] [%] | Activity (Rattus norvegicus [2]) [mm] | Time (Mus musculus [3]) [s] | inhibition in vivo at 10 mg/kg (Rattus norvegicus [4]) [%] | Activity (Rattus norvegicus [5]) [mm] | MIC (Candida albicans) | Activity (Mus musculus [6]) [%] | UI [7] | Activity [8] | Activity [9] | Activity_index (Splenocyte [10]) | Activity (Mus musculus [11]) [%] | viability at 10 µM (Splenocyte [12]) [%] | Activity (Rattus norvegicus [13]) [mm] | Activity (Peritoneal macrophage [14]) [µM] | Activity (Mus musculus [15]) [%] | Activity (Mus musculus [16]) [%] | MIC (Staphylococcus aureus) | inhibition in vivo at 10 mg/kg (Rattus norvegicus [17]) [%] | Activity (Rattus norvegicus [18]) [mm] | also measured |
| --- | --- | --- | --- | --- | --- | --- | --- | --- | --- | --- | --- | --- | --- | --- | --- | --- | --- | --- | --- | --- | --- |
| COc1cc(/C=C/C(=O)/C=C(O)/C=C/c2ccc(OC(=O)C(C)NC(=O)OCc3ccccc3)c(OC)c2)ccc1OC(=O)C(C)NC(=O)OCc1ccccc1 (centres undefined) | 3.33 | 0.67 | 6.26 | 115 | 0.26 | 0.5 µg/mL and 0.642 µM | 53.2 | 4.67 | 0.67 | 0.67 | 1.18 | 24.7 | 103 | 0.05 | 14.91 | 45.5 | 18.4 | 0.5 µg/mL and 0.642 µM | 100 | 0 | inhibition in vivo at 10 mg/kg (Rattus norvegicus [19]): 97%; inhibition in vivo at 10 mg/kg (Rattus norvegicus [20]): 100%; Time (Mus musculus [21]): 3.12 s; Time (Mus musculus [22]): 3.22 s; Activity (Rattus norvegicus [23]): 0 mm; MIC (Pseudomonas aeruginosa): 0.25 µg/mL and 0.321 µM; Activity (Mus musculus [24]): 19.75; Activity (Mus musculus [25]): 19.1%; Activity [26]: Non-Toxic; MIC (Salmonella typhimurium): 0.5 µg/mL and 0.642 µM; inhibition in vivo at 10 mg/kg (Rattus norvegicus [27]): 72%; Time (Mus musculus [28]): 5.24 s; Activity (Peritoneal macrophage [29]): 45.41%; MIC (Streptococcus pyogenes): 0.125 µg/mL and 0.161 µM; inhibition in vivo at 10 mg/kg (Rattus norvegicus [30]): 87%; Activity (Mus musculus [31]): 53.4%; Activity (Mus musculus [32]): 86.7% |
| COc1cc(/C=C/C(=O)/C=C(O)/C=C/c2ccc(OC(=O)[C@@H](C)NC(=O)OCc3ccccc3)c(OC)c2)ccc1OC(=O)[C@@H](C)NC(=O)OCc1ccccc1 | 0 | 0.43 | 5.6 | 115 | 0.23 | 0.5 µg/mL and 0.642 µM | 8.2 | 0 | 0 | 0 | 1.59 | 11.6 | 76 | 0.09 | 17.63 | 60 | 25.7 | 0.5 µg/mL and 0.642 µM | 100 | 0.42 | inhibition in vivo at 10 mg/kg (Rattus norvegicus [19]): 95%; inhibition in vivo at 10 mg/kg (Rattus norvegicus [20]): 49%; Time (Mus musculus [21]): 3.28 s; Time (Mus musculus [22]): 3.42 s; Activity (Rattus norvegicus [23]): 0 mm; MIC (Pseudomonas aeruginosa): 1 µg/mL and 1.28 µM; Activity (Mus musculus [24]): 14.4; Activity (Mus musculus [25]): 25.2%; Activity [26]: Non-Toxic; MIC (Salmonella typhimurium): 0.5 µg/mL and 0.642 µM; inhibition in vivo at 10 mg/kg (Rattus norvegicus [27]): 82%; Time (Mus musculus [28]): 3.7 s; Activity (Peritoneal macrophage [29]): 35.45%; MIC (Streptococcus pyogenes): 0.125 µg/mL and 0.161 µM; inhibition in vivo at 10 mg/kg (Rattus norvegicus [30]): 89%; Activity (Mus musculus [31]): 66%; Activity (Mus musculus [32]): 107.1% |
